Laboratory results: US20140141459A1, “PENTRAXIN 3 ASSOCIATION WITH ASTHMA” (THE REGENTS OF THE UNIVERSITY OF MICHIGAN, priority 2011, published 2014)

Tests used:
[1] = system: A. fumigatus-induced asthma model; assay: Bronchial hyper-responsiveness (Buxco plethysmograph, methacholine) in A. fumigatus-induced asthma model; format: in vivo, mice; details: vs PBS
Procedure: (§1) C57BL/6 mice were sensitized via intraperitoneal (i.p.) and subcutaneous (s.c.) route with a commercially available preparation of soluble A. fumigatus antigens dissolved in 0.2 ml of IFA. After three intranasal instillations of Aspergillus antigen, each spaced one-week apart, each mouse received 1×10^7 swollen conidia suspended in 30 μl of PBS tween 80 (0.1%; vol/vol) via intratracheal (i.t.) administration. All mice were euthanized with an overdose of Nembutal and lung homogenates were collected immediately following euthanization. Mouse PTX3 ELISA was completed on lung homogenate supernatant.
(§2) A. fumigatus-Induced Asthma Model was Established as Described in Example 1.
(§3) Mice were treated every other day from day 0 to 15 or from day 15 to 30 with PBS or human PTX3 (R&D System, Minneapolis, Minn., USA; 10 μg/injection). At days 15 and 30 after conidia challenge, bronchial hyper-responsiveness was assessed in a Buxco™ plethysmograph (Buxco, Troy, N.Y.) after intravenous methacholine injection (420 μg/Kg). Other parameters were determined after the assessment of airway hyper-responsiveness.

[2] = system: A. fumigatus-induced asthma model; assay: Cytokine levels in whole lung homogenate in A. fumigatus-induced asthma model; format: in vivo, mice; details: day 30 after conidia challenge
Procedure: as §1, §2, §3
To investigate whether the treatment with exogenous PTX3 modified the cytokine profile in asthma, the levels of different cytokines in whole lungs homogenate from PBS and PTX3-treated mice at day 30 after conidia challenge were measured.

Substance: PTX3: human PTX3 (pentraxin 3) polypeptide from R&D System, administered to mice at 10 μg/injection
- airway resistance at day 15 after conidia ([1]; treated every other day from day 0 to 15, 10 μg/injection): significantly increased
- airway resistance at day 30 after conidia ([1]; treated every other day from day 15 to 30, 10 μg/injection): significantly decreased
- increase in IL-4 ([2]; vs PBS treatment): 1.8 fold
- increase in IL-10 ([2]; vs PBS treatment): 1.8 fold
- increase in IL-17 ([2]; vs PBS treatment): 3.7 fold
- reduction in IFN-γ ([2]; vs PBS treatment): 1.8 fold
- IL-18 levels ([2]; vs control group): significantly increased
- increase in CCL22 (MDC) levels ([2]; vs control group): 1.7 fold
- increase in IL-1α levels ([2]; vs control group): 1.7 fold
- increase in IL-1β levels ([2]; vs control group): 1.7 fold
